Data as given in patent US11319299B2, “Substituted carboxamides as inhibitors of WDR5 protein-protein binding” (PROPELLON THERAPEUTICS INC., priority 2016, dated 2022).

Each compound was assayed against WDR5 (Homo sapiens (Human), UniProt P61964) (assay: Surface Plasmon Resonance (SPR) assay, KD and residence time). Details: surface plasmon resonance (SPR) assay; read-out: WDR5 binding affinity (KD).
Assay type: binding
Experimental: (i) Surface Plasmon Resonance (SPR) Assay
The lifetime of a drug on its target is determined by two rate constants: the association rate constant (kon) and the dissociation rate constant (koff). In principle, the lifetime of the binary drug—target complex is thus extended by a rapid rate of drug binding and/or a slow rate of drug—target complex dissociation. The in vivo lifetime of a drug-target complex is most critically dependent on the value of the koff [Nat. Rev. Drug Discov. […] Drug Discov. […] Drug-target residence time is defined as the reciprocal of koff (τ=1/koff), making the residence time a parameter that is easily measured by routine in vitro assay methods.
A Kd of 5.37 nM was found for CC1CN(c2cc(F)c(-c3ccc(N4CCN(C)CC4)cc3)cc2NC(=O)c2cn(C)c(=O)cc2C(F)(F)F)CCN1C (stereo in doubt) [Example 302, N-[4-fluoro-5-[4-(4-methylpiperazin-1-yl)phenyl]-2-[(3R)-3,4-dimethylpiperazin-1-yl]phenyl]-1-methyl-6-oxo-4-(trifluoromethyl)pyridine-3-carboxamide] in this work. A Kd of 0.989 nM was found for CC1CN(c2cc(F)c(-c3cnc(N4CCN(C)CC4)nc3)cc2NC(=O)c2ccc(F)cc2C(F)(F)F)CCN1C (stereo in doubt) [Example 316, 4-fluoro-N-[4-fluoro-5-[2-(4-methylpiperazin-1-yl)pyrimidin-5-yl]-2-[(3R)-3,4-dimethylpiperazin-1-yl]phenyl]-2-(trifluoromethyl)benzamide] in this work. A Kd of 1.61 nM was found for CC1CN(c2cc(F)c(-c3cnc(N4CC(C)(C)OC(C)(C)C4)nc3)cc2NC(=O)c2c[nH]c(=O)cc2C(F)(F)F)CCN1C (stereo in doubt) [Example 319, N-[4-fluoro-2-[(3R)-3,4-dimethylpiperazin-1-yl]-5-[2-(2,2,6,6-tetramethylmorpholin-4-yl)pyrimidin-5-yl]phenyl]-6-oxo-4-(trifluoromethyl)-1H-pyridine-3-carboxamide] in this work. A Kd of 2.01 nM was found for CC1CN(c2cc(F)c(-c3ccc(N4CCOCC4)nc3)cc2NC(=O)c2c[nH]c(=O)cc2C(F)F)CCN1C (stereo in doubt) [Example 331, 4-(difluoromethyl)-N-[4-fluoro-5-(6-morpholin-4-ylpyridin-3-yl)-2-[(3R)-3,4-dimethylpiperazin-1-yl]phenyl]-6-oxo-1H-pyridine-3-carboxamide] in this work. A Kd of 1.16 nM was found for C[C@@H]1CN(c2cc(F)c(-c3cnc(N4CCOC[C@H]4C)nc3)cc2NC(=O)c2c[nH]c(=O)cc2C(F)(F)F)CCN1C (stereo in doubt) [Example 337, N-[4-fluoro-2-[(3R)-3,4-dimethylpiperazin-1-yl]-5-[2-[(3R)-3-methylmorpholin-4-yl]pyrimidin-5-yl]phenyl]-6-oxo-4-(trifluoromethyl)-1H-pyridine-3-carboxamide] in this work. A Kd of 2.08 nM was found for CC1COCCN1c1ncc(-c2cc(NC(=O)c3c[nH]c(=O)cc3C(F)(F)F)c(N3C[C@@H](C)N(C)[C@@H](C)C3)cc2F)cn1 (stereo in doubt) [Example 338, N-[4-fluoro-5-[2-[(3R)-3-methylmorpholin-4-yl]pyrimidin-5-yl]-2-[(3S,5R)-3,4,5-trimethylpiperazin-1-yl]phenyl]-6-oxo-4-(trifluoromethyl)-1H-pyridine-3-carboxamide] in this work. A Kd of 0.606 nM was found for CC(C)[C@@H]1CN(c2ncc(-c3cc(NC(=O)c4c[nH]c(=O)cc4C(F)(F)F)c(N4CCN(C)[C@H](C)C4)cc3F)cn2)CCO1 (stereo in doubt) [Example 347, N-[4-fluoro-2-[(3R)-3,4-dimethylpiperazin-1-yl]-5-[2-[(2R)-2-propan-2-ylmorpholin-4-yl]pyrimidin-5-yl]phenyl]-6-oxo-4-(trifluoromethyl)-1H-pyridine-3-carboxamide] in this work. A Kd of 2.35 nM was found for CC1CN(c2cc(F)c(-c3cnc(N4CCOC(C)(C)C4)nc3)cc2NC(=O)c2c[nH]c(=O)cc2C(F)(F)F)CCN1C (stereo in doubt) [Example 349, N-[5-[2-(2,2-dimethylmorpholin-4-yl)pyrimidin-5-yl]-4-fluoro-2-[(3R)-3,4-dimethylpiperazin-1-yl]phenyl]-6-oxo-4-(trifluoromethyl)-1H-pyridine-3-carboxamide] in this work. A Kd of 19.9 nM was found for C[C@@H]1CN(c2ncc(-c3cc(NC(=O)c4c[nH]c(=O)cc4C(F)(F)F)c(N4C[C@@H](C)N(C)[C@H](C)C4)cc3F)cn2)C[C@H](C)O1 (stereo in doubt) [Example 356, N-[4-fluoro-5-[2-[(2R,6S)-2,6-dimethylmorpholin-4-yl]pyrimidin-5-yl]-2-[(3R,5R)-3,4,5-trimethylpiperazin-1-yl]phenyl]-6-oxo-4-(trifluoromethyl)-1H-pyridine-3-carboxamide] in this work. A Kd of 133 nM was found for C[C@@H]1CN(c2cc(F)c(-c3ccc(N4CCOCC4)c(F)c3)cc2NC(=O)c2c[nH]c(=O)cc2C(F)(F)F)C[C@@H](C)N1C (stereo in doubt) [Example 357, N-[4-fluoro-5-(3-fluoro-4-morpholin-4-ylphenyl)-2-[(3R,5R)-3,4,5-trimethylpiperazin-1-yl]phenyl]-6-oxo-4-(trifluoromethyl)-1H-pyridine-3-carboxamide] in this work. A Kd of 0.244 nM was found for C[C@@H]1CN(c2cc(F)c(-c3cnc(N(C)[C@@H]4CCOC4)nc3)cc2NC(=O)c2c[nH]c(=O)cc2C(F)(F)F)CCN1C (stereo in doubt) [Example 362, N-[4-fluoro-5-[2-[methyl-[(3R)-oxolan-3-yl]amino]pyrimidin-5-yl]-2-[(3R)-3,4-dimethylpiperazin-1-yl]phenyl]-6-oxo-4-(trifluoromethyl)-1H-pyridine-3-carboxamide] in this work. A Kd of 0.634 nM was found for C[C@@H]1CN(c2cc(F)c(-c3cnc(N(C)C4CCOC4)nc3)cc2NC(=O)c2c[nH]c(=O)cc2C(F)(F)F)C[C@H](C)N1C (stereo in doubt) [Example 363, N-[4-fluoro-5-[2-[methyl-[(3R)-oxolan-3-yl]amino]pyrimidin-5-yl]-2-[(3S,5R)-3,4,5-trimethylpiperazin-1-yl]phenyl]-6-oxo-4-(trifluoromethyl)-1H-pyridine-3-carboxamide] in this work. A Kd of 0.866 nM was found for CC1CN(c2cc(F)c(-c3cnc(N(C)C4CCOCC4)nc3)cc2NC(=O)c2c[nH]c(=O)cc2C(F)(F)F)CCN1C (stereo in doubt) [Example 370, N-[4-fluoro-5-[2-[methyl(oxan-4-yl)amino]pyrimidin-5-yl]-2-[(3R)-3,4-dimethylpiperazin-1-yl]phenyl]-6-oxo-4-(trifluoromethyl)-1H-pyridine-3-carboxamide] in this work. A Kd of 0.522 nM was found for C[C@@H]1CN(c2ncc(-c3cc(NC(=O)c4c[nH]c(=O)cc4C(F)(F)F)c(N4CCN(C)[C@H](C)C4)cc3F)cn2)CCO1 (stereo in doubt) [Example 389, N-[4-fluoro-2-[(3R)-3,4-dimethylpiperazin-1-yl]-5-[2-[(2R)-2-methylmorpholin-4-yl]pyrimidin-5-yl]phenyl]-6-oxo-4-(trifluoromethyl)-1H-pyridine-3-carboxamide] in this work. A Kd of 0.634 nM was found for CC1CN(c2ncc(-c3cc(NC(=O)c4c[nH]c(=O)cc4C(F)(F)F)c(N4C[C@@H](C)N(C)[C@@H](C)C4)cc3F)cn2)CCO1 (stereo in doubt) [Example 390, N-[4-fluoro-5-[2-[(2R)-2-methylmorpholin-4-yl]pyrimidin-5-yl]-2-[(3S,5R)-3,4,5-trimethylpiperazin-1-yl]phenyl]-6-oxo-4-(trifluoromethyl)-1H-pyridine-3-carboxamide] in this work.

Same assay, conditions: surface plasmon resonance (SPR); read-out: WDR5 binding affinity (KD)
A Kd of 0.68 nM was found for CC1CN(c2ncc(-c3cc(NC(=O)c4c[nH]c(=O)cc4C(F)F)c(N4C[C@@H](C)N(C)[C@@H](C)C4)cc3F)cn2)CCO1 (stereo in doubt) [Example 397, 4-(difluoromethyl)-N-[4-fluoro-5-[2-[(2R)-2-methylmorpholin-4-yl]pyrimidin-5-yl]-2-[(3S,5R)-3,4,5-trimethylpiperazin-1-yl]phenyl]-6-oxo-1H-pyridine-3-carboxamide] in this work. A Kd of 1.41 nM was found for C[C@@H]1CN(c2ncc(-c3cc(NC(=O)c4c[nH]c(=O)cc4C(F)(F)F)c(N4CCC(N(C)C)C4)cc3F)cn2)C[C@H](C)O1 (stereo in doubt) [Example 417, N-[4-fluoro-2-[(3S)-3-(dimethylamino)pyrrolidin-1-yl]-5-[2-[(2R,6S)-2,6-dimethylmorpholin-4-yl]pyrimidin-5-yl]phenyl]-6-oxo-4-(trifluoromethyl)-1H-pyridine-3-carboxamide] in this work. A Kd of 1.93 nM was found for CC1CN(c2cc(F)c(-c3ccc(N4C[C@@H](C)O[C@@H](C)C4)nc3)cc2NC(=O)c2ccc(F)cc2C(F)(F)F)CCN1C (stereo in doubt) [Example 423, 4-fluoro-N-[4-fluoro-5-[6-[(2R,6S)-2,6-dimethylmorpholin-4-yl]pyridin-3-yl]-2-[(3R)-3,4-dimethylpiperazin-1-yl]phenyl]-2-(trifluoromethyl)benzamide] in this work. A Kd of 0.609 nM was found for CC1CN(c2cc(F)c(-c3cnc(N4CCC(C)(O)CC4)nc3)cc2NC(=O)c2c[nH]c(=O)cc2C(F)(F)F)CCN1C (stereo in doubt) [Example 424, N-[4-fluoro-5-[2-(4-hydroxy-4-methylpiperidin-1-yl)pyrimidin-5-yl]-2-[(3R)-3,4-dimethylpiperazin-1-yl]phenyl]-6-oxo-4-(trifluoromethyl)-1H-pyridine-3-carboxamide] in this work. A Kd of 2.84 nM was found for C[C@@H]1CN(c2ccc(-c3cc(NC(=O)c4c[nH]c(=O)cc4C(F)(F)F)c(N4CCN(C)[C@H](C)C4)cc3F)cn2)CCO1 (stereo in doubt) [Example 433, N-[4-fluoro-2-[(3R)-3,4-dimethylpiperazin-1-yl]-5-[6-[(2R)-2-methylmorpholin-4-yl]pyridin-3-yl]phenyl]-6-oxo-4-(trifluoromethyl)-1H-pyridine-3-carboxamide] in this work. A Kd of 1.47 nM was found for CC1CN(c2cc(F)c(-c3cnc(N4CCN(C5CC5)CC4)nc3)cc2NC(=O)c2ccc(F)cc2C(F)(F)F)CCN1C (stereo in doubt) [Example 435, N-[5-[2-(4-cyclopropylpiperazin-1-yl)pyrimidin-5-yl]-4-fluoro-2-[(3R)-3,4-dimethylpiperazin-1-yl]phenyl]-4-fluoro-2-(trifluoromethyl)benzamide] in this work. A Kd of 1.01 nM was found for CC1CN(c2cc(F)c(-c3ccc(N4CCOCC4)c(F)c3)cc2NC(=O)c2c[nH]c(=O)cc2C(F)F)CCN1C (stereo in doubt) [Example 448, 4-(difluoromethyl)-N-[4-fluoro-5-(3-fluoro-4-morpholin-4-ylphenyl)-2-[(3R)-3,4-dimethylpiperazin-1-yl]phenyl]-6-oxo-1H-pyridine-3-carboxamide] in this work.
